{
  "source": "patent US20110165115A1",
  "about": "“SYNERGISTIC ATTRACTANTS FOR PESTIFEROUS SOCIAL INSECTS” (STERLING INTERNATIONAL INC., priority 2010, published 2011)",
  "key": {"D. maculata": {"test_system": "D. maculata", "test": "Field trapping Experiment 2, DMNT dose-response with W•H•Y top attractants", "format": "in vivo, Dolichovespula maculata", "conditions": "Exp 2, DMNT added to WHY top attractant", "protocol": "(§1) Three field trapping experiments were carried out during late July to early August 2009, in residential and woody areas around Spokane, Wash., USA, using the newly marketed Rescue® W•H•Y traps (www.rescue.com). As used herein, the W•H•Y trap is a trap in accordance with the description of United States Patent Application Publication No. 2009/0151228. The W•H•Y trap has a top chamber and a bottom chamber. The top chamber is baited with two attractants—one of which is a solid contained in a vial (2-methyl-1-butanol) and the other a liquid mixed with water (acetic acid), herein referred to as the W•H•Y top attractant. The bottom chamber is baited with a liquid attractant (heptyl butyrate) poured onto a cotton pad, herein referred to as the W•H•Y bottom attractant. Separation of the top and bottom attractants (otherwise antagonistic to each other when released from the same chamber) in two chambers was a design feature of this trap and creates two focal attraction sources from one trap for different species of wasps, hornets, and yellowjackets. Traps were hung 1.5-2.0 m above the ground on either the fence or tree branches ca. 5 m apart within each trap line. For each trapping experiment, six sets of traps were deployed with their initial trap positions within each set being randomized. To minimize positional effects and obtain more replications, wasp collections and trap re-randomization were carried out when ≧10-20 wasps were caught in the best trap. Each replicate lasted several days depending on wasp flight activity. Captured wasps were removed from the traps and kept in the zip-bags before taking back to the laboratory for recording of the species, gender status, and catch.\nExperiment 1 (Jul. 22-30, 2009) tested ten synthetic HIPV candidates [(E)-2-hexenal, (Z)-3-hexen-1-ol, (Z)-3-hexenyl acetate, cis-ocimene, linalool, methyl salicylate, geranyl acetate, trans-β-caryophyllene, trans-β-farnesene and (E)-4,8-dimethyl-1,3,7-nonatriene], including several paper wasp EAD-active compounds (see FIG. 2 for details), to determine their potential synergistic effect on the Rescue® W•H•Y trap attractants to paper wasps, yellowjackets, and hornets. Experiment 2 (Aug. 5-13, 2009) tested behavioral responses of the paper wasps and yellowjackets to the Rescue® W•H•Y trap attractants (top attractants only) and its combination with (E)-4,8-dimethyl-1,3,7-nonatriene, one of the EAD-active and behaviorally significant HIPVs, in a dose-response fashion. Experiment 3 (Aug. 5-13, 2009) was conducted to determine the potential behavioral activity of different doses of (E)-4,8-dimethyl-1,3,7-nonatriene alone. The individual (or different doses) HIPVs were loaded into either polyethylene bags or centrifuge tube type of dispensers, and released from the top of the W•H•Y trap chamber. W•H•Y trap attractants (both top and bottom or top only) alone and water (top chamber only) were included in the test as positive and blank controls, respectively. The dispenser types, loading and release rates of the tested semiochemicals are described in Tables 1, 2 and 3.\nTrap catch data were converted to proportion (P) of total captured wasps within each replicate. Data were then transformed by arcsin√P to meet the assumptions of normality and homogeneity of variances for ANOVA. Means were compared by ANOVA followed by the Ryan-Einot-Gabriel-Welsh (REGW) multiple Q test (SPSS 16.0 for Windows) at α=0.05."}, "[1]": {"test_system": "paper wasps and yellowjackets", "test": "Field trapping Experiment 2", "format": "in vivo, V. pensylvanica, V. vulgaris and P. dominulus", "conditions": "Exp 2", "protocol": "as §1, with “To minimize positional effects and obtain more replications, wasp collections and trap re-randomization were carried out when ≧10-20 wasps were caught in the best trap. Each replicate lasted several days depending on wasp flight activity. Captured wasps were removed from the traps and kept in the zip-bags before taking back to the laboratory for recording of the species, gender status, and catch.” left out"}},
  "data": [
    {"smiles": "C=C/C=C(\\C)CCC=C(C)C", "note": "[(E)-4,8-dimethyl-1,3,7-nonatriene]", "values": [
      {"measurement": "Total Yellowjackets Caught D. maculata", "setting": "D. maculata; release rate 0.25, hole 0.5 mm, loading 15 μL", "value": 0},
      {"measurement": "Total Yellowjackets Caught D. maculata", "setting": "D. maculata; release rate 0.5, hole 1 mm, loading 30 μL", "value": 1},
      {"measurement": "Total Yellowjackets Caught D. maculata", "setting": "D. maculata; release rate 1, hole 2 mm, loading 75 μL", "value": 1},
      {"measurement": "Total Yellowjackets Caught D. maculata", "setting": "D. maculata; release rate 1.5, hole 3 mm, loading 175 μL", "value": 0},
      {"measurement": "Total Yellowjackets Caught D. maculata", "setting": "D. maculata; release rate 2, hole 5.5 mm, loading 325 μL", "value": 0},
      {"measurement": "effect on trap catches of the vespid workers", "setting": "[1]; 0.5 or 1-1.5 mg/day added to the top attractants, especially V. pensylvanica, V. vulgaris and P. dominulus", "value": "significantly increased"},
      {"measurement": "effect on the trap catches", "setting": "[1]; other release rates (doses) added to the top attractants", "value": "no effect"}
    ]}
  ]
}
